From patent US10508120B2, “TYK2 inhibitors and uses thereof” (Nimbus Lakshmi, Inc., priority 2017, dated 2019)
Like-named read-outs stand apart in the source and are kept apart here.

How the values were obtained:
Tyk2 kinase domain (DH1) = Tyk2 kinase domain (DH1) (Homo sapiens (Human), UniProt P29597); test: Tyk2 Radioactive Kinase Assay; type: biochemical; conditions: for inhibition at 10 µM: read-out: Tyk2 JH1% Inhibition @ 10 μM
Summary of the method: (§1)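 Values are single-concentration percent inhibition figures. They were obtained with 10 μM compound in a radioactivity-based kinase assay run separately on each enzyme.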

JAK2 kinase domain (JH1) = JAK2 kinase domain (JH1) (Homo sapiens (Human), UniProt O60674); test: JAK2 Radioactive Kinase Assay; type: biochemical; conditions: for inhibition at 10 µM: read-out: JAK2 JH1% Inhibition @ 10 μM
Sequence of JAK2 kinase domain (JH1) (O60674 849-1124): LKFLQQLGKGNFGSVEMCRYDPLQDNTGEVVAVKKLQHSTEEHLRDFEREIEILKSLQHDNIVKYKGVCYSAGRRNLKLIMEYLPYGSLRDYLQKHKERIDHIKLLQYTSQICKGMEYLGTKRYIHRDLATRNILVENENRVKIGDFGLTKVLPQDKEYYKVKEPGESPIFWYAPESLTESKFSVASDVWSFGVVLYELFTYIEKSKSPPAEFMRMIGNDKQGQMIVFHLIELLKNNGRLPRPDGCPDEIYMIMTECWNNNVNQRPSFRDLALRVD
Summary of the method: as §1

[1] = biological target: JAK2/JAK2 homdimeric complex (Homo sapiens (Human), UniProt O60674); test: GM-CSF Induced pSTAT5 in Human PBMC; type: cell-based; conditions: GM-CSF 5 ng/mL for 20 minutes, pSTAT5 by MSD, read-out: PBMC_GMCSF_pSTAT5 IC50
Sequence of JAK2/JAK2 homdimeric complex (O60674 whole entry, the tested form may be a part): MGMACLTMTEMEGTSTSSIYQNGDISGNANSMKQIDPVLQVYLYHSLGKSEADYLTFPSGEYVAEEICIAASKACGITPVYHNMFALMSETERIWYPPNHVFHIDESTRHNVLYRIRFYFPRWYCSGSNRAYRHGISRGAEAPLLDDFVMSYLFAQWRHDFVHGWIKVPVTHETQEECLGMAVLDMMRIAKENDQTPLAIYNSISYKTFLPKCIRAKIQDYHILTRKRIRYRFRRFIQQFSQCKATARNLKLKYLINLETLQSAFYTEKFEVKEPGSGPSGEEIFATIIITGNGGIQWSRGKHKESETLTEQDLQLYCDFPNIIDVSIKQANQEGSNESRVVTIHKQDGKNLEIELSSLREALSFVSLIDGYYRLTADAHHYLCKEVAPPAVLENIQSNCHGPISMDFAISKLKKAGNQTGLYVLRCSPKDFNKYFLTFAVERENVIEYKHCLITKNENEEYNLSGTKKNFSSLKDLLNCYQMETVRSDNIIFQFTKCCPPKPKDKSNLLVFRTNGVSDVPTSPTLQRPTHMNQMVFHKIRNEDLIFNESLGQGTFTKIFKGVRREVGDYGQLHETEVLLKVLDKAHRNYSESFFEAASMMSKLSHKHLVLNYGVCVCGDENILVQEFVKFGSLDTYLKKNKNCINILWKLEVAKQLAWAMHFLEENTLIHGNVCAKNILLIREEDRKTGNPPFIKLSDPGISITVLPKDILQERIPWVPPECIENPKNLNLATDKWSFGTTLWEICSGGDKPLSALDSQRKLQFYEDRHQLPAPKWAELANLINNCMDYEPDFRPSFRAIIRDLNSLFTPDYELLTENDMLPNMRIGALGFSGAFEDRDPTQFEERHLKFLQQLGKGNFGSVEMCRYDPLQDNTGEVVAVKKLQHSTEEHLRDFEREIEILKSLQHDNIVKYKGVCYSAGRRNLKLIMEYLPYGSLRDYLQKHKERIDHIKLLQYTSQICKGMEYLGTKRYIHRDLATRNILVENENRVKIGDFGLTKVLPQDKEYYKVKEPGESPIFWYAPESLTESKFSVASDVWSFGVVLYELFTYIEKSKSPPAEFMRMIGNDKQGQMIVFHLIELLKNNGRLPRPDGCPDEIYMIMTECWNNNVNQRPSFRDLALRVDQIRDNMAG
Sequence of JAK2/JAK2 homdimeric complex (P32927 17-897 partner): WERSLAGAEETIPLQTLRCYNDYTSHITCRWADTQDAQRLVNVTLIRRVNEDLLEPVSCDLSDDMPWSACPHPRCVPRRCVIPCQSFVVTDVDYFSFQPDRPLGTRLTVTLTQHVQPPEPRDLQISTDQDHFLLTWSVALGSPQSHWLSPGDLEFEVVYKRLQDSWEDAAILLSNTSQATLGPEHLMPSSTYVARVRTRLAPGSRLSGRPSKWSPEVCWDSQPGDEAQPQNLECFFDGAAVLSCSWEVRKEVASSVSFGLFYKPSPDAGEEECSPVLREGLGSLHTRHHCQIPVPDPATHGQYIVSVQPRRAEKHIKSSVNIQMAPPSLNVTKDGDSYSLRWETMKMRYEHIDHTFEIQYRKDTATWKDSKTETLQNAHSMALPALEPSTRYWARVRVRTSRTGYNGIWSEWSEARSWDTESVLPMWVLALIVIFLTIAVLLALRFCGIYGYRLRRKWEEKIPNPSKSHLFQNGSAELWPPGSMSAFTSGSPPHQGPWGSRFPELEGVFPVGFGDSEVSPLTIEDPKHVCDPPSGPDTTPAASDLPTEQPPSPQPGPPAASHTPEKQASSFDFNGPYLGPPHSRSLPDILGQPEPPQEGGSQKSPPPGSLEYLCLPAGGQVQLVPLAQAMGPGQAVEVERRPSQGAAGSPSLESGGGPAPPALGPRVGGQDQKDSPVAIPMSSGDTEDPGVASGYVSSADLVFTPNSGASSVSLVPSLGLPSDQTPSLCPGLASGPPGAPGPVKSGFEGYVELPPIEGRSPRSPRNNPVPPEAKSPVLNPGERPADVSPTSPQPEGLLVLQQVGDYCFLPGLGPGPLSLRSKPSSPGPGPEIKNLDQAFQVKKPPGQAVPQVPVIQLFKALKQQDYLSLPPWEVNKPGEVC

[2] = biological target: human TYK2 (JH2domain-pseudokinase) (Homo sapiens (Human), UniProt P29597); test: TYK2 JH2 Domain Binding Assay (KINOMEscan)
Sequence of human TYK2 (JH2domain-pseudokinase) (P29597 556-888): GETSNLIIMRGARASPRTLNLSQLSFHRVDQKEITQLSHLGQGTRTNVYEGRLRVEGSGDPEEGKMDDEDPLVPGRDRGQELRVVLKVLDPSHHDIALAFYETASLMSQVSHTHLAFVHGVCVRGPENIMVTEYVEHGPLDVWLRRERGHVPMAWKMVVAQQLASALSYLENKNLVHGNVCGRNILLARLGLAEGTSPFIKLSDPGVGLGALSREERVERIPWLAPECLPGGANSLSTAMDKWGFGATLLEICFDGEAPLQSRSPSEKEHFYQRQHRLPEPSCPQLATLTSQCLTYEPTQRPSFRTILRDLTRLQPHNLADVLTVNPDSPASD
Summary of the method: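 Pseudokinase domain binding was measured by qPCR of tagged, bead-retained kinase after 1 h room-temperature competition, with 0.9% DMSO and compound up to 30,000 nM in 3-fold steps. Hill-equation Kd, duplicate.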

Sequence of Tyk2 kinase domain (DH1) (P29597 897-1176): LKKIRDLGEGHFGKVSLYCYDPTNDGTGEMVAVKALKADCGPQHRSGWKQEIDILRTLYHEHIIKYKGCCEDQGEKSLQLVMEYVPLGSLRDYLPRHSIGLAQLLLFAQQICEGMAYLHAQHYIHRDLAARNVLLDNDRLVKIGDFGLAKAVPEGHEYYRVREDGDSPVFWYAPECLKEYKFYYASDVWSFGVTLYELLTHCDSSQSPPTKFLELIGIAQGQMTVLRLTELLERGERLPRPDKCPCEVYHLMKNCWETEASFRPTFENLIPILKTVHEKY

IC50 [1]	inhibition at 10 µM (Tyk2 kinase domain (DH1); 10 μM compound, 10 μM ATP)	Kd [2]	inhibition at 10 µM (JAK2 kinase domain (JH1); 10 μM compound, 10 μM ATP)	SMILES	inhibition at 10 µM (Tyk2 kinase domain (DH1))	inhibition at 10 µM (JAK2 kinase domain (JH1))	JAK2 JH1% Inhibition @ 10 μM (JAK2 kinase domain (JH1); 10 μM compound, 10 μM ATP)	Tyk2 JH1% Inhibition @ 10 μM (Tyk2 kinase domain (DH1); 10 μM compound, 10 μM ATP)
> 50 µM	< 50%	< 0.0002 µM	< 50%	CNc1cc(Nc2cccn([C@H]3CCCC[C@H]3O)c2=O)nc2c(C(=O)NC3CC3)cnn12 [I-878]				
> 50 µM				CNc1cc(Nc2cccn([C@@H]3CCCOC3)c2=O)nc2c(C(=O)N[C@@H]3CC[C@H]3OC)cnn12 [I-902, N-((1R,2R)-2-methoxycyclobutyl)-7-(methylamino)-5-((2-oxo-1-((R)-tetrahydro-2H-pyran-3-yl)-1,2-dihydropyridin-3-yl)amino)pyrazolo[1,5-a]pyrimidine-3-carboxamide]			A (percent inhibition at 10 μM lower than 50)	
> 50 µM				CNc1cc(Nc2cccn([C@@H]3CCC[C@@H](OC)C3)c2=O)nc2c(C(=O)NC3CC3)cnn12 [I-957]			A (percent inhibition at 10 μM lower than 50)	A (percent inhibition at 10 μM lower than 50)
> 50 µM	< 50%	< 0.0002 µM	< 50%	CNc1cc(Nc2cccn(C3CCC[C@H](OC)C3)c2=O)nc2c(C(=O)NCC(C)(C)CO)cnn12 (some centres unmarked) [I-958]				
> 50 µM		< 0.0002 µM		CNc1cc(Nc2cccn([C@H]3CC[C@](C)(OC)CC3)c2=O)nc2c(C(=O)N[C@@H]3CC[C@H]3O)cnn12 [I-962]			A (percent inhibition at 10 μM lower than 50)	A (percent inhibition at 10 μM lower than 50)
> 50 µM	< 50%	< 0.0002 µM	< 50%	CNc1cc(Nc2cccn([C@H]3CCC[C@H]3O)c2=O)nc2c(C(=O)NC3CC3)cnn12 [I-963]				
> 50 µM				CNc1cc(Nc2cccn([C@H]3CCC[C@@H](OC)C3)c2=O)nc2c(C(=O)N[C@@H]3CC[C@H]3O)cnn12 [I-993]			A (percent inhibition at 10 μM lower than 50)	A (percent inhibition at 10 μM lower than 50)
> 50 µM		< 0.0002 µM		CNc1cc(Nc2cccn([C@H]3CCC[C@@H](OC)C3)c2=O)nc2c(C(=O)N[C@H]3CC[C@@H]3OC)cnn12 [I-996]			A (percent inhibition at 10 μM lower than 50)	A (percent inhibition at 10 μM lower than 50)
> 50 µM	< 50%	< 0.0002 µM	< 50%	CNc1cc(Nc2cccn([C@H]3CCC[C@H](OC)C3)c2=O)nc2c(C(=O)NCC3(CO)CC3)cnn12 [I-1010]				
> 12.5 µM	< 50%	< 0.0002 µM	< 50%	CNc1cc(Nc2cccn([C@@H]3CC[C@H]3OC)c2=O)nc2c(C(=O)N[C@@H]3C[C@@H]3F)cnn12 [I-1022]				
> 50 µM	< 50%	< 0.0002 µM	< 50%	CNc1cc(Nc2cccn([C@H]3CCC[C@H](OC)C3)c2=O)nc2c(C(=O)NC3CC3)cnn12 [I-1025]				
> 50 µM	< 50%	< 0.0002 µM	< 50%	CNc1cc(Nc2cccn([C@H]3CCC[C@H](OC)C3)c2=O)nc2c(C(=O)NCC(C)(C)CO)cnn12 [I-1027]				
> 2.5 µM	< 50%	< 0.0002 µM	< 50%	CNc1cc(Nc2cccn([C@@H]3CCC[C@@H](O)C3)c2=O)nc2c(C(=O)N[C@@H]3C[C@@H]3F)cnn12 [I-1029]				

More lines, now with the values behind:

SMILES	IC50 [1]	inhibition at 10 µM (Tyk2 kinase domain (DH1); 10 μM compound, 10 μM ATP)	Kd [2]	inhibition at 10 µM (JAK2 kinase domain (JH1); 10 μM compound, 10 μM ATP)	inhibition at 10 µM (Tyk2 kinase domain (DH1))	inhibition at 10 µM (JAK2 kinase domain (JH1))	JAK2 JH1% Inhibition @ 10 μM (JAK2 kinase domain (JH1); 10 μM compound, 10 μM ATP)	Tyk2 JH1% Inhibition @ 10 μM (Tyk2 kinase domain (DH1); 10 μM compound, 10 μM ATP)
CNc1cc(Nc2cccn(-c3ccccn3)c2=O)nc2c(C(=O)N[C@@H]3CC[C@H]3OC)cnn12 (stereo in doubt) [I-816, N-(2-methoxycyclobutyl)-7-(methylamino)-5-((2-oxo-2H-[1,2′-bipyridin]-3-yl)amino)pyrazolo[1,5-a]pyrimidine-3-carboxamide]	> 2.5 µM				< 50%	< 50%		
CNc1cc(-c2cn(C3CC3)c3ncccc23)nc2c(C(=O)N[C@H]3CC[C@@H]3OC)cnn12 (stereo in doubt) [I-1067, 5-(1-cyclopropyl-1H-pyrrolo[2,3-b]pyridin-3-yl)-N-(2-methoxycyclobutyl)-7-(methylamino)pyrazolo[1,5-a]pyrimidine-3-carboxamide]	> 12.5 µM	< 50%	< 0.0002 µM	< 50%				
CNc1cc(Nc2cccn(-c3ccccn3)c2=O)nc2c(C(=O)N[C@@H]3CC[C@H]3OC)cnn12 [I-908, N-((1R,2R)-2-methoxycyclobutyl)-7-(methylamino)-5-((2-oxo-2H-[1,2′-bipyridin]-3-yl)amino)pyrazolo[1,5-a]pyrimidine-3-carboxamide]	> 50 µM						A (percent inhibition at 10 μM lower than 50)	A (percent inhibition at 10 μM lower than 50)
CNc1cc(Nc2cc(Cl)cn(-c3cnn(C)c3F)c2=O)nc2c(C(=O)NC3CC3)cnn12 [I-955]	> 12.5 µM	< 50%	< 0.0002 µM	< 50%				
CNc1cc(Nc2cccn([C@H]3CCC[C@H]3O)c2=O)nc2c(C(=O)N[C@@H]3C[C@@H]3F)cnn12 [I-965]	> 50 µM	< 50%	< 0.0002 µM	< 50%				
CNc1cc(Nc2cccc(N3CCCC3=O)n2)nc2c(C(=O)N[C@H]3CC[C@H]3O)cnn12 [I-969]	> 50 µM	< 50%	< 0.0002 µM	< 50%				
CNc1cc(Nc2cccn(-c3ccccn3)c2=O)nc2c(C(=O)N[C@H]3CC[C@@H]3O)cnn12 [I-971]	> 50 µM	< 50%		< 50%				
CNc1cc(Nc2cccn(-c3cncc(F)c3)c2=O)nc2c(C(=O)N[C@H]3CC[C@@H]3OC)cnn12 [I-984]	> 50 µM						A (percent inhibition at 10 μM lower than 50)	
CNc1cc(Nc2cccn([C@@H]3CC[C@H]3O)c2=O)nc2c(C(=O)N[C@@H]3C[C@@H]3F)cnn12 [I-999]	> 50 µM	< 50%	< 0.0002 µM	< 50%				
CNc1cc(Nc2cccn(-c3cccc(F)c3)c2=O)nc2c(C(=O)N[C@H]3CC[C@H]3O)cnn12 [I-1004]	> 12.5 µM		< 0.0002 µM				A (percent inhibition at 10 μM lower than 50)	A (percent inhibition at 10 μM lower than 50)
CNc1cc(-c2cn(C(C)C)c3ncc(F)cc23)nc2c(C(=O)N[C@H]3CC[C@H]3O)cnn12 [I-1013, 5-(5-fluoro-1-isopropyl-1-pyrrolo[2,3-b]pyridin-3-yl)-N-(2-hydroxycyclobutyl)-7-(methylamino)pyrazolo[1,5-a]pyrimidine-3-carboxamide]	> 12.5 µM	< 50%	< 0.0002 µM	< 50%				
CNc1cc(Nc2cccn(-c3cnco3)c2=O)nc2c(C(=O)N[C@H]3CC[C@H]3O)cnn12 [I-1017]	> 12.5 µM	< 50%	< 0.0002 µM	< 50%				
CNc1cc(Nc2cccn(-c3ccccc3F)c2=O)nc2c(C(=O)N[C@H]3CC[C@H]3O)cnn12 [I-1035]	> 2.5 µM	< 50%	< 0.0002 µM	< 50%				
CNc1cc(Nc2cccn([C@H]3[C@@H]4COC[C@@H]43)c2=O)nc2c(C(=O)N[C@H]3CC[C@@H]3OC)cnn12 [I-1088]	> 50 µM	< 50%		< 50%				
